This passage reports MIC, zone of inhibition and Ratio results from ChEMBL document CHEMBL2385069, “Thiourea derivatives incorporating a hippuric acid moiety: synthesis and evaluation of antibacterial and antifungal activities” (2013).

The subject of test [1] is Klebsiella pneumoniae. Description: Antibacterial activity against Klebsiella pneumoniae ATCC 13883 after 24 hrs by two fold serial dilution technique. The note with it: ATCC 13883, 24 h. The class given is functional.
In test [2] the test system is Priestia megaterium. Description: Antibacterial activity against Bacillus megaterium ATCC 9885 after 24 hrs by two fold serial dilution technique. The test is classed as functional. The note with it: ATCC 9885, 24 h.
For test [3], the system named is Escherichia coli. The test is described as follows: Antibacterial activity against Escherichia coli ATCC 25922 after 24 hrs by two fold serial dilution technique. The test is classed as functional. The note with it: ATCC 25922, 24 h.
For test [4], the system named is Staphylococcus aureus. The test is described as follows: Antibacterial activity against Staphylococcus aureus ATCC 29213 after 24 hrs by two fold serial dilution technique. The test is classed as functional. As to conditions: ATCC 29213, 24 h.
Test [5] has as its system Micrococcus luteus. Description: Antibacterial activity against Sarcina lutea assessed as diameter of inhibition zone at 1 mg/ml after 24 hrs by agar well diffusion method. The class given is functional. As to conditions: read-out: DIZ. Background: A growth-free zone around the sample is the usual read-out of agar diffusion tests.
Test [6] has as its system Candida albicans. Description: Antifungal activity against Candida albicans NRRLY-477 after 24 hrs by two fold serial dilution technique. The test is classed as functional. The note with it: NRRLY-477, 24 h.
Test [7] concerns Bacillus subtilis. The test is described as follows: Ratio of Ciprofloxacin MIC to compound MIC for Bacillus subtilis ATCC 6633. The test is classed as functional.
Test [8] concerns Saccharomyces cerevisiae. The test is described as follows: Antifungal activity against Saccharomyces cerevisiae assessed as diameter of inhibition zone at 1 mg/ml after 24 hrs by agar well diffusion method. The class given is functional. As to conditions: read-out: DIZ.
The subject of test [9] is Bacillus subtilis. The test is described as follows: Antibacterial activity against Bacillus subtilis ATCC 6633 assessed as diameter of inhibition zone at 1 mg/ml after 24 hrs by agar well diffusion method. The test is classed as functional. As to conditions: ATCC 6633, 24 h, read-out: DIZ.
Test [10] relates to Pseudomonas aeruginosa. Description: Antibacterial activity against Pseudomonas aeruginosa ATCC 27953 assessed as diameter of inhibition zone at 1 mg/ml after 24 hrs by agar well diffusion method. The class given is functional. The note with it: ATCC 27953, 24 h, read-out: DIZ.
Test [11] deals with Bacillus subtilis. Description: Antibacterial activity against Bacillus subtilis ATCC 6633 after 24 hrs by two fold serial dilution technique. The class given is functional. The note with it: ATCC 6633, 24 h.
Test [12] deals with Klebsiella pneumoniae. Description: Antibacterial activity against Klebsiella pneumoniae ATCC 13883 assessed as diameter of inhibition zone at 1 mg/ml after 24 hrs by agar well diffusion method. As to conditions: ATCC 13883, 24 h, read-out: DIZ. The test is classed as functional.
Test [13] relates to Micrococcus luteus. The test is described as follows: Antibacterial activity against Sarcina lutea after 24 hrs by two fold serial dilution technique. The test is classed as functional.
Test [14] deals with Proteus vulgaris. Description: Antibacterial activity against Proteus vulgaris assessed as diameter of inhibition zone at 1 mg/ml after 24 hrs by agar well diffusion method. The note with it: read-out: DIZ. The test is classed as functional.
Test [15] concerns Staphylococcus aureus. The test is described as follows: Antibacterial activity against Staphylococcus aureus ATCC 29213 assessed as diameter of inhibition zone at 1 mg/ml after 24 hrs by agar well diffusion method. The test is classed as functional. The note with it: ATCC 29213, 24 h, read-out: DIZ.
Test [16] has as its system Pseudomonas aeruginosa. Description: Antibacterial activity against Pseudomonas aeruginosa ATCC 27953 after 24 hrs by two fold serial dilution technique. The class given is functional. The note with it: ATCC 27953, 24 h.
Test [17] relates to Proteus vulgaris. The test is described as follows: Antibacterial activity against Proteus vulgaris after 24 hrs by two fold serial dilution technique. The test is classed as functional.
Test [18] concerns Escherichia coli. The test is described as follows: Antibacterial activity against Escherichia coli ATCC 25922 assessed as diameter of inhibition zone at 1 mg/ml after 24 hrs by agar well diffusion method. The class given is functional. As to conditions: ATCC 25922, 24 h, read-out: DIZ.
Test [19] concerns Priestia megaterium. Description: Antibacterial activity against Bacillus megaterium ATCC 9885 assessed as diameter of inhibition zone at 1 mg/ml after 24 hrs by agar well diffusion method. The class given is functional. As to conditions: ATCC 9885, 24 h, read-out: DIZ.
Test [20] relates to Candida albicans. The test is described as follows: Ratio of ketoconazole MIC to compound MIC for Candida albicans NRRLY-477. The class given is functional.
For test [21], the system named is Saccharomyces cerevisiae. Description: Antifungal activity against Saccharomyces cerevisiae after 24 hrs by two fold serial dilution technique. The test is classed as functional.
Test [22] deals with Candida albicans. The test is described as follows: Antifungal activity against Candida albicans NRRLY-477 assessed as diameter of inhibition zone at 1 mg/ml after 24 hrs by agar well diffusion method. The test is classed as functional. The note with it: NRRLY-477, 24 h, read-out: DIZ.
Test [23] concerns Staphylococcus aureus. The test is described as follows: Ratio of Ciprofloxacin MIC to compound MIC for Staphylococcus aureus ATCC 29213. The class given is functional.
The test system of test [24] is Pseudomonas aeruginosa. The test is described as follows: Ratio of Ciprofloxacin MIC to compound MIC for Pseudomonas aeruginosa ATCC 27953. The test is classed as functional.
The subject of test [25] is Priestia megaterium. The test is described as follows: Antibacterial activity against Bacillus megaterium ATCC 9885 assessed as diameter of inhibition zone at 0.5 mg/ml after 24 hrs by agar well diffusion method. The test is classed as functional. The note with it: ATCC 9885, 24 h, read-out: DIZ.
The test system of test [26] is Proteus vulgaris. The test is described as follows: Antibacterial activity against Proteus vulgaris assessed as diameter of inhibition zone at 0.5 mg/ml after 24 hrs by agar well diffusion method. The test is classed as functional. The note with it: read-out: DIZ.
For test [27], the system named is Pseudomonas aeruginosa. Description: microbe, parasite or virus in culture. The note with it: ATCC 27953, 24 h, read-out: DIZ.
Description: Antibacterial activity against Pseudomonas aeruginosa ATCC 27953 assessed as diameter of inhibition zone at 0.5 mg/ml after 24 hrs by agar well diffusion method
The subject of test [28] is Bacillus subtilis. Description: microbe, parasite or virus in culture. As to conditions: ATCC 6633, 24 h, read-out: DIZ.
Description: Antibacterial activity against Bacillus subtilis ATCC 6633 assessed as diameter of inhibition zone at 0.5 mg/ml after 24 hrs by agar well diffusion method
For test [29], the system named is Staphylococcus aureus. The test is described as follows: microbe, parasite or virus in culture. As to conditions: ATCC 29213, 24 h, read-out: DIZ.
Description: Antibacterial activity against Staphylococcus aureus ATCC 29213 assessed as diameter of inhibition zone at 0.5 mg/ml after 24 hrs by agar well diffusion method
For test [30], the system named is Klebsiella pneumoniae. Description: microbe, parasite or virus in culture. The note with it: ATCC 13883, 24 h, read-out: DIZ.
Description: Antibacterial activity against Klebsiella pneumoniae ATCC 13883 assessed as diameter of inhibition zone at 0.5 mg/ml after 24 hrs by agar well diffusion method
The subject of test [31] is Micrococcus luteus. Description: Antibacterial activity against Sarcina lutea assessed as diameter of inhibition zone at 0.5 mg/ml after 24 hrs by agar well diffusion method. The test is classed as functional. As to conditions: read-out: DIZ.
Test [32] relates to Saccharomyces cerevisiae. Description: Antifungal activity against Saccharomyces cerevisiae assessed as diameter of inhibition zone at 0.5 mg/ml after 24 hrs by agar well diffusion method. The test is classed as functional. As to conditions: read-out: DIZ.
For test [33], the system named is Candida albicans. The test is described as follows: Antifungal activity against Candida albicans NRRLY-477 assessed as diameter of inhibition zone at 0.5 mg/ml after 24 hrs by agar well diffusion method. The test is classed as functional. The note with it: NRRLY-477, 24 h, read-out: DIZ.

Structures are written as SMILES. In brackets after ≈: the same amount, converted by molar mass.

As for `O=C(O)CNC(=O)c1ccc(NC(=S)Nc2cccc(Br)c2)cc1`, the MIC in test [1] worked out at 6.25 µg/mL (≈ 15.3 µM); in test [2] it was 3.12 µg/mL (≈ 7.64 µM); in test [3] it was 6.25 µg/mL (≈ 15.3 µM); in test [4], 6.25 µg/mL (≈ 15.3 µM); in test [6], 3.12 µg/mL (≈ 7.64 µM); in test [11], 3.12 µg/mL (≈ 7.64 µM). The minimal inhibitory concentration (MIC) in test [13] stood at 12.5 µg/mL (≈ 30.6 µM); in test [16], 12.5 µg/mL (≈ 30.6 µM); in [17], 6.25 µg/mL (≈ 15.3 µM); in test [21], 6.25 µg/mL (≈ 15.3 µM). The zone of inhibition at 1000 µg/mL in [5] came to 20 mm; in test [8], 28 mm; in test [9], 30 mm; in test [10], 22 mm; in [12] it was 30 mm; in test [14] it was 24 mm. In addition, the zone of inhibition at 1000 µg/mL was determined as 31 mm in test [15], 27 mm in [18], 32 mm in [19] and 30 mm in test [22]. The Ratio in test [7] and in [20] was 2 throughout.

Regarding `O=C(O)CNC(=O)c1ccc(NC(=S)Nc2ccc(S(=O)(=O)Nc3ncccn3)cc2)cc1`, the Ratio in test [23] was determined as 2; in test [24], 4. In addition, the MIC in [1] came out at 12.5 µg/mL (≈ 25.7 µM); in test [2], 12.5 µg/mL (≈ 25.7 µM); in test [3], 6.25 µg/mL (≈ 12.8 µM); in test [4] it was 3.12 µg/mL (≈ 6.41 µM); in [6] it was 12.5 µg/mL (≈ 25.7 µM); in test [11], 12.5 µg/mL (≈ 25.7 µM). Besides, the MIC amounted to 12.5 µg/mL (≈ 25.7 µM) in test [13], 3.12 µg/mL (≈ 6.41 µM) in test [16], 12.5 µg/mL (≈ 25.7 µM) in test [17] and 3.12 µg/mL (≈ 6.41 µM) in test [21]. Moreover, the zone of inhibition at 1000 µg/mL in [5] was 25 mm; in [8], 30 mm; in test [9], 26 mm; in [10], 34 mm; in test [12] it was 17 mm; in test [14] it was 21 mm. The zone of inhibition at 1000 µg/mL in test [15] was 32 mm; in test [18] it was 32 mm; in test [19], 27 mm; in test [22], 25 mm.

Regarding `O=C(O)c1cn(C2CC2)c2cc(N3CCNCC3)c(F)cc2c1=O` [CIPROFLOXACIN], the MIC in test [1] came to 12.5 µg/mL (≈ 37.7 µM); in test [2] it was 6.25 µg/mL (≈ 18.9 µM); in test [3], 12.5 µg/mL (≈ 37.7 µM); in test [11], 6.25 µg/mL (≈ 18.9 µM); in [13] it was 12.5 µg/mL (≈ 37.7 µM); in [17], 12.5 µg/mL (≈ 37.7 µM). For the same compound, the zone of inhibition at 500 µg/mL in [25] came to 24 mm; in test [26], 23 mm; in [27] it was 24 mm; in test [28], 22 mm; in test [29], 20 mm; in [30], 25 mm. The zone of inhibition at 500 µg/mL in [31] was 20 mm.

Turning to `CC(=O)N1CCN(c2ccc(OCC3COC(Cn4ccnc4)(c4ccc(Cl)cc4Cl)O3)cc2)CC1` (stereo unspecified) [KETOCONAZOLE], the results for the MIC in test [6] and in [21] were 6.25 µg/mL (≈ 11.8 µM) and 3.12 µg/mL (≈ 5.87 µM), respectively. Moreover, the zone of inhibition at 500 µg/mL in test [32] was 23 mm; in [33] it was 22 mm.

For orientation: MIC means the smallest concentration in the dilution series that meets the test's criterion for growth inhibition. A lower MIC goes with inhibition by little substance.
